The target of this assay is Low molecular weight phosphotyrosine protein phosphatase (Homo sapiens) (UniProt P24666). Briefly: Inhibition of LMWPTP (unknown origin) using DiFMUP as substrate incubated for 30 mins followed by substrate addition at pH 6.5 by standard phosphatase assay based fluorescence analysis.
Chain of Low molecular weight phosphotyrosine protein phosphatase (Homo sapiens) (P24666 whole entry, looked up): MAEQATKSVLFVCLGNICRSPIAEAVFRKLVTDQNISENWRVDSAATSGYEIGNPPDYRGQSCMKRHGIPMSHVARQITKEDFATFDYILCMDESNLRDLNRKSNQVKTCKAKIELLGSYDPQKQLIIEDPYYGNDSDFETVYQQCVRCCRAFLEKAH

Compound `COc1c(C=O)c2c(c3c1CC(C)(C)C3)C(=O)OC(O)C2` (configuration not stated) [3-Hydroxy-6-methoxy-8,8-dimethyl-1-oxo-1,3,4,7,8,9-hexahydro-cyclopenta[h]isochromene-5-carbaldehyde] showed an IC50 greater than 100 µM.
With `CC1(C)Cc2c(O)c(C=O)c3c(c2C1)C(=O)OC(O)C3` (configuration not stated) [Illudalic acid] the figure was greater than 100 µM.

Usually IC50 stands for the concentration at which inhibition is half-maximal. A low value points to inhibition by little substance.

For the origin of these results see BindingDB's records for doi:10.1021/acs.jnatprod.9b00663 (University of Utah, 2019).
